Active and inactive are the calls of the source. The rule behind the calls is not given here.

Data set [1] has as its system Leishmania amazonensis. The experiment in a line: Antileishmanial activity against Leishmania amazonensis IFLA/BR/67/PH8 promastigotes assessed as lysis of promastigotes at 100 ug/ml after 72 hrs. Format: functional.
The subject of data set [2] is Leishmania braziliensis. The experiment in a line: Antileishmanial activity against Leishmania braziliensis MHOM/BR/75/M2903 promastigotes assessed as lysis of promastigotes at 100 ug/ml after 72 hrs. The data set is classed as functional.
Data set [3] concerns Leishmania amazonensis. Put plainly: Leishmanicidal activity against Leishmania amazonensis amastigotes infected in BALB/c mouse assessed as suppression of lesion weight at 100 mg/kg/day, sc administered 4 weeks after infection for 15 days measured after 1 week relative to control. Format: functional, organism-based.
Data set [4] deals with Leishmania amazonensis. Put plainly: Leishmanicidal activity against Leishmania amazonensis amastigotes infected in BALB/c mouse assessed as suppression of parasite load in lesions at 100 mg/kg/day, sc administered 4 weeks after infection for 15 days measured after 1 week relative to control. Format: functional, organism-based.
Data set [5] in a line: Cytotoxicity against BALB/c mouse peritoneal macrophages at 2.1 uM after 48 hrs by trypan blue exclusion method. The data set is classed as cell-based. As to conditions: macrophage.
Data set [6] concerns J774. The experiment in a line: Cytotoxicity against mouse J774 macrophages at 21.7 uM after 24 hrs by resazurin test. The data set is classed as cell-based. As to conditions: j774, 24 h. For orientation: Resazurin is reduced to fluorescent resorufin, in cell work by metabolically active cells.
In data set [7] the test system is Leishmania amazonensis. The experiment in a line: Leishmanicidal activity against Leishmania amazonensis IFLA/BR/67/PH8 promastigotes after 72 hrs. Format: functional, organism-based. The note with it: IFLA/BR/67/PH8, 72 h.
Data set [8] has as its system Leishmania amazonensis. Put plainly: Leishmanicidal activity against Leishmania amazonensis amastigotes infected in BALB/c mouse assessed as suppression of parasite load in lesions at 25 mg/kg/day, po administered 4 weeks after infection for 15 days measured after 1 week relative to control. Format: functional.
For data set [9], the system named is Leishmania braziliensis. Put plainly: Leishmanicidal activity against Leishmania braziliensis MHOM/BR/75/M2903 promastigotes at >13.03 uM after 72 hrs. The data set is classed as functional, organism-based.
Data set [10] can be described thus: Cytotoxicity against mouse NCTC-929 fibroblast at 8.6 uM after 24 hrs by resazurin test. Format: cell-based. The note with it: nctc-929, 24 h.
The subject of data set [11] is Leishmania donovani. Put plainly: Antileishmanial activity against Leishmania donovani MHOM/BR/74/PP75 promastigotes assessed as lysis of promastigotes at 100 ug/ml after 72 hrs. The data set is classed as functional.
Data set [12] relates to Trypanosoma cruzi. Put plainly: Trypanocidal activity against Trypanosoma cruzi CL-B5 clone epimastigotes expressing lacZ gene after 72 hrs at 28 degC. The data set is classed as functional, organism-based.
Data set [13] in a line: Cytotoxicity against BALB/c mouse peritoneal macrophages at 21.7 uM after 48 hrs by trypan blue exclusion method. The data set is classed as cell-based. The note with it: macrophage.
Data set [14] relates to Leishmania amazonensis. Put plainly: Leishmanicidal activity against Leishmania amazonensis amastigotes infected in BALB/c mouse assessed as suppression of parasite load in lesions at 25 mg/kg/day, sc administered 4 weeks after infection for 15 days measured after 1 week relative to control. The data set is classed as functional. As to conditions: route subcutaneous.
The test system of data set [15] is Leishmania amazonensis. The experiment in a line: Leishmanicidal activity against Leishmania amazonensis amastigotes infected in BALB/c mouse assessed as suppression of parasite load in lesions at 10 mg/kg/day, sc administered 4 weeks after infection for 15 days measured after 1 week relative to control. The data set is classed as functional. The note with it: route subcutaneous.

Data set [16] concerns Leishmania amazonensis. The experiment in a line: Antileishmanial activity against Leishmania amazonensis PH8 amastigotes infected in mouse peritoneal macrophages after 48 hrs. The data set is classed as functional, organism-based. As to conditions: PH8, 48 h.
In data set [17] the test system is J774. The experiment in a line: Cytotoxicity against mouse J774 macrophages at 2.1 uM after 24 hrs by resazurin test. The data set is classed as cell-based. As to conditions: j774, 24 h.
In data set [18] the test system is Leishmania braziliensis. Put plainly: Leishmanicidal activity against Leishmania braziliensis MHOM/BR/75/M2903 promastigotes after 72 hrs. Format: functional, organism-based. As to conditions: MHOM/BR/75/M2903, 72 h.
Data set [19] is described as follows: Cytotoxicity against BALB/c mouse peritoneal macrophages at 8.6 uM after 48 hrs by trypan blue exclusion method. The note with it: macrophage. The data set is classed as cell-based.
For data set [20], the system named is Leishmania donovani. The experiment in a line: Leishmanicidal activity against Leishmania donovani MHOM/BR/74/PP75 promastigotes at >13.03 uM after 72 hrs. Format: functional, organism-based.
In data set [21] the test system is Leishmania amazonensis. The experiment in a line: Leishmanicidal activity against Leishmania amazonensis amastigotes infected in BALB/c mouse assessed as suppression of lesion weight at 10 mg/kg/day, po administered 4 weeks after infection for 15 days measured after 1 week relative to control. Format: functional.
The subject of data set [22] is Leishmania donovani. Put plainly: Leishmanicidal activity against Leishmania donovani MHOM/BR/74/PP75 promastigotes after 72 hrs. The data set is classed as functional, organism-based.
Data set [23] is described as follows: Cytotoxicity against mouse NCTC-929 fibroblast at 4.3 uM after 24 hrs by resazurin test. The data set is classed as cell-based. The note with it: nctc-929, 24 h.
The test system of data set [24] is J774. The experiment in a line: Cytotoxicity against mouse J774 macrophages at 4.3 uM after 24 hrs by resazurin test. The data set is classed as cell-based. As to conditions: j774, 24 h.
In data set [25] the test system is Leishmania amazonensis. The experiment in a line: Leishmanicidal activity against Leishmania amazonensis amastigotes infected in BALB/c mouse assessed as suppression of lesion weight at 25 mg/kg/day, sc administered 4 weeks after infection for 15 days measured after 1 week relative to control. Format: functional. The note with it: route subcutaneous.
Data set [26] has as its system Trypanosoma cruzi. The experiment in a line: Antitrypanosomal activity against Trypanosoma cruzi CL-B5 amastigotes infected in mouse NCTC-929 fibroblast after 7 days by colorimetric method. Format: functional, organism-based. As to conditions: NCTC-929, 168 h.
Data set [27] in a line: Cytotoxicity against mouse NCTC-929 fibroblast at 2.1 uM after 24 hrs by resazurin test. As to conditions: nctc-929, 24 h.
In data set [28] the test system is J774. The experiment in a line: Cytotoxicity against mouse J774 macrophages at 8.6 uM after 24 hrs by resazurin test. As to conditions: j774, 24 h. The data set is classed as cell-based.
The nature of data set [29]: Cytotoxicity against mouse NCTC-929 fibroblast at 21.7 uM after 24 hrs by resazurin test. The data set is classed as cell-based. The note with it: nctc-929, 24 h.
In data set [30] the test system is Leishmania amazonensis. The experiment in a line: Leishmanicidal activity against Leishmania amazonensis amastigotes infected in BALB/c mouse assessed as suppression of lesion weight at 25 mg/kg/day, po administered 4 weeks after infection for 15 days measured after 1 week relative to control. Format: functional.
For data set [31], the system named is Leishmania amazonensis. Put plainly: Antileishmanial activity against Leishmania amazonensis PH8 amastigotes infected in mouse peritoneal macrophages at >4.34 uM. Format: functional, organism-based.
In data set [32] the test system is Leishmania amazonensis. The experiment in a line: Leishmanicidal activity against Leishmania amazonensis amastigotes infected in BALB/c mouse assessed as suppression of lesion weight at 10 mg/kg/day, sc administered 4 weeks after infection for 15 days measured after 1 week relative to control. Format: functional. The note with it: route subcutaneous.
In data set [33] the test system is Leishmania amazonensis. The experiment in a line: Leishmanicidal activity against Leishmania amazonensis amastigotes infected in BALB/c mouse assessed as suppression of parasite load in lesions at 10 mg/kg/day, po administered 4 weeks after infection for 15 days measured after 1 week relative to control. The data set is classed as functional.
Data set [34] concerns Leishmania amazonensis. Put plainly: Leishmanicidal activity against Leishmania amazonensis IFLA/BR/67/PH8 promastigotes at >13.03 uM after 72 hrs. The data set is classed as functional, organism-based.
Data set [35] can be described thus: Cytotoxicity against BALB/c mouse peritoneal macrophages at 4.3 uM after 48 hrs by trypan blue exclusion method. As to conditions: macrophage. Format: cell-based.

`COc1ccc(CCc2cc(OC)ccc2OC)cc1`: the Activity in the data set with Leishmania amazonensis [1] and with Leishmania braziliensis [2] was less than 70% in each case.
On to MEGLUMINE ANTIMONATE, for which the Activity in the data set on Leishmania amazonensis [3] is 72.1%; in the data set on Leishmania amazonensis [4] it was 98.2%.
For orientation: IC50 means the concentration needed to halve the response being measured. Higher therefore signals weaker potency. `Oc1ccc(CCc2cc(O)ccc2O)cc1`: the Activity in [5] turned out to be 0%; with J774 [6], 18.88%; in the data set with Leishmania amazonensis [8], 93.1%; in the data set with Leishmania amazonensis [1], 100%; in [10], 2.93%; in the data set on Leishmania donovani [11], 100%. Moreover, the Activity is 1.4% in data set [13]; 97% in the data set on Leishmania amazonensis [14]; 93% with Leishmania amazonensis [15]; 0.76% with J774 [17]; 0% in [19]; 90% in the data set with Leishmania amazonensis [21]. Moreover, the Activity is given as 0.66% in [23]; 2.11% in the data set on J774 [24]; 98.3% in the data set with Leishmania amazonensis [25]; 0% in data set [27]; 4.89% with J774 [28]; 100% in the data set with Leishmania braziliensis [2]. The Activity in data set [29] is 7.91%; in the data set on Leishmania amazonensis [30], 80.9%; in the data set on Leishmania amazonensis [32] it was 95.9%; in the data set with Leishmania amazonensis [33] it was 68.6%; in data set [35], 0%. Further, the IC50 is 1.1 µM in the data set on Leishmania amazonensis [7]; 5.8 µM in the data set on Trypanosoma cruzi [12]; 1.5 µM with Leishmania amazonensis [16]; 1.1 µM in the data set on Leishmania braziliensis [18]; 0.5 µM in the data set on Leishmania donovani [22]; 17.3 µM in the data set with Trypanosoma cruzi [26]. Also, the outcome in the data set with Leishmania braziliensis [9], with Leishmania donovani [20], with Leishmania amazonensis [31] and in the data set on Leishmania amazonensis [34] was Active.
For `Oc1ccc(CCc2cccc(O)c2)cc1` [LUNULARIN], the Activity with Leishmania amazonensis [1] and with Leishmania braziliensis [2] was less than 70% each time.
`Oc1ccc(/C=C/c2cc(O)cc(O)c2)cc1` [RESVERATROL]: the results for the Activity with Leishmania amazonensis [1], with Leishmania donovani [11] and in the data set on Leishmania braziliensis [2] were less than 70%, less than 70% and 80%, respectively.
For `O=C(Cn1ccnc1[N+](=O)[O-])NCc1ccccc1` [BENZNIDAZOLE], the IC50 stood at 54.7 µM in the data set with Trypanosoma cruzi [12] and 192 µM with Trypanosoma cruzi [26].
With `N=C(N)c1ccc(OCCCCCOc2ccc(C(=N)N)cc2)cc1` [PENTAMIDINE], the IC50 with Leishmania amazonensis [7] worked out at 9.8 µM; with Leishmania amazonensis [16] it was 0.9 µM; in the data set on Leishmania braziliensis [18], 9.8 µM; in the data set with Leishmania donovani [22], 9.8 µM.

(Values after ChEMBL document CHEMBL1154439, “Activity of a hydroxybibenzyl bryophyte constituent against Leishmania spp. and Trypanosoma cruzi: in silico, in vitro and in vivo activity studies” (Eur J Med Chem, 2008).)
